Data from ChEMBL document CHEMBL1151240, “A new dimension to the biosynthetic products isolated from the sponge Negombata magnifica” (2004).
Active and inactive are the calls of the source. No cut-off for these calls is given here.

Each compound was assayed on A10 (assay: Disruption of actin cytoskeleton in rat A10 cells upto 10 ug/ml by rhodamine-phalloidin assay).
Format: functional
In the case of `CO[C@]1([C@@H]2CSC(=O)N2)C[C@H]2C[C@@H](CC[C@H](C)/C=C\CC/C(C)=C\C(=O)O2)O1`, the Activity is reported as “inactive”.
`C/C1=C/C(=O)O[C@@H]2C[C@@H](CC[C@H](C)/C=C\CC1)O[C@@](O)([C@@H]1CSC(=O)N1)C2` [LATRUNCULIN B] showed an Activity of 0.5 µg/mL.
Work on `C/C1=C/C(=O)O[C@@H]2C[C@@H](CC[C@H](C)/C=C\C=C\CC1)O[C@@](O)([C@@H]1CSC(=O)N1)C2` [LATRUNCULIN A] yielded an Activity of 0.5 µg/mL.
In the case of `C/C(=C/C(=O)O)CC/C=C\[C@@H](C)CC[C@@H]1CC=CC(=O)O1`, the Activity is reported as “inactive”.
Compound `C/C1=C/C(=O)O[C@@H]2C[C@@H](CC[C@H](C)/C=C\CC1)O[C@@](O)([C@H]1CSC(=O)N1)C2` [16-EPI-LATRUNCULIN B] has an Activity of 5 µg/mL.
